In this test the target is T1, NEK2 (Homo sapiens, UniProt P51955).
T1 construct: purchased Thermo Fisher Scientific (Life Technologies) SelectScreen
The experiment in a line: SelectScreen Z'LYTE. The format is biochemical. The procedure, abridged:
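Percent values come from Thermo SelectScreen profiling of NU5455, combining activity and binding assays. CSF1R was run in Z'LYTE format at Km app ATP, and CAMK1 in Adapta format with ATP listed at 10.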

The inhibition is the share of the control response that was lost under treatment. The low end stands for a response near the control, the high end for a response far below the control.

SMILES strings stand for the structures.

T1 sequence (P51955 whole entry): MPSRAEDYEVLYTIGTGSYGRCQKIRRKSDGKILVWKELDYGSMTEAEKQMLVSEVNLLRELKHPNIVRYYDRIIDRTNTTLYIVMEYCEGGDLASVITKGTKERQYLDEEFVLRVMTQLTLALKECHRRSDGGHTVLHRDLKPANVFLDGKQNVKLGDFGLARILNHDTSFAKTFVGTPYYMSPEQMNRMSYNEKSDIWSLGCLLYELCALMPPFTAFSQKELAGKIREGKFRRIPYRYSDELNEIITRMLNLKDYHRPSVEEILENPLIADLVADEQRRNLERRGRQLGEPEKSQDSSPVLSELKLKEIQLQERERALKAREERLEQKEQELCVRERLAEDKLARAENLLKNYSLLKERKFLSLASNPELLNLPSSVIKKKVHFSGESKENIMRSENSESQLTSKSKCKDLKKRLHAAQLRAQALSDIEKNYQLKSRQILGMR

Molecule `CN(C(=O)CN1CCOCC1)c1ccc2sc3c(-c4cccc5c(=O)cc(N6CC7CCC(C6)O7)oc45)cccc3c2c1` [NU5455] had an inhibition at 1 µM of 17.8%.
